Test results published in patent US7790895B2, “Quinoline derivatives as potassium ion channel openers” (Janssen Pharmaceutica NV, priority 2005, dated 2010).

These compounds were tested against T1, KATP channels (Homo sapiens, UniProt O60706) (assay: Potassium Channel Assay (FLIPR membrane potential, KATP channel opening)). Settings: TE671 human medulloblastoma cells, Membrane Potential Assay Dye, room temperature.
T1 construct: TE671 human medulloblastoma cells were obtained from ATCC; host or cells: TE671 human medulloblastoma cells
T1 sequence (O60706 1-1549 isoform O60706-2): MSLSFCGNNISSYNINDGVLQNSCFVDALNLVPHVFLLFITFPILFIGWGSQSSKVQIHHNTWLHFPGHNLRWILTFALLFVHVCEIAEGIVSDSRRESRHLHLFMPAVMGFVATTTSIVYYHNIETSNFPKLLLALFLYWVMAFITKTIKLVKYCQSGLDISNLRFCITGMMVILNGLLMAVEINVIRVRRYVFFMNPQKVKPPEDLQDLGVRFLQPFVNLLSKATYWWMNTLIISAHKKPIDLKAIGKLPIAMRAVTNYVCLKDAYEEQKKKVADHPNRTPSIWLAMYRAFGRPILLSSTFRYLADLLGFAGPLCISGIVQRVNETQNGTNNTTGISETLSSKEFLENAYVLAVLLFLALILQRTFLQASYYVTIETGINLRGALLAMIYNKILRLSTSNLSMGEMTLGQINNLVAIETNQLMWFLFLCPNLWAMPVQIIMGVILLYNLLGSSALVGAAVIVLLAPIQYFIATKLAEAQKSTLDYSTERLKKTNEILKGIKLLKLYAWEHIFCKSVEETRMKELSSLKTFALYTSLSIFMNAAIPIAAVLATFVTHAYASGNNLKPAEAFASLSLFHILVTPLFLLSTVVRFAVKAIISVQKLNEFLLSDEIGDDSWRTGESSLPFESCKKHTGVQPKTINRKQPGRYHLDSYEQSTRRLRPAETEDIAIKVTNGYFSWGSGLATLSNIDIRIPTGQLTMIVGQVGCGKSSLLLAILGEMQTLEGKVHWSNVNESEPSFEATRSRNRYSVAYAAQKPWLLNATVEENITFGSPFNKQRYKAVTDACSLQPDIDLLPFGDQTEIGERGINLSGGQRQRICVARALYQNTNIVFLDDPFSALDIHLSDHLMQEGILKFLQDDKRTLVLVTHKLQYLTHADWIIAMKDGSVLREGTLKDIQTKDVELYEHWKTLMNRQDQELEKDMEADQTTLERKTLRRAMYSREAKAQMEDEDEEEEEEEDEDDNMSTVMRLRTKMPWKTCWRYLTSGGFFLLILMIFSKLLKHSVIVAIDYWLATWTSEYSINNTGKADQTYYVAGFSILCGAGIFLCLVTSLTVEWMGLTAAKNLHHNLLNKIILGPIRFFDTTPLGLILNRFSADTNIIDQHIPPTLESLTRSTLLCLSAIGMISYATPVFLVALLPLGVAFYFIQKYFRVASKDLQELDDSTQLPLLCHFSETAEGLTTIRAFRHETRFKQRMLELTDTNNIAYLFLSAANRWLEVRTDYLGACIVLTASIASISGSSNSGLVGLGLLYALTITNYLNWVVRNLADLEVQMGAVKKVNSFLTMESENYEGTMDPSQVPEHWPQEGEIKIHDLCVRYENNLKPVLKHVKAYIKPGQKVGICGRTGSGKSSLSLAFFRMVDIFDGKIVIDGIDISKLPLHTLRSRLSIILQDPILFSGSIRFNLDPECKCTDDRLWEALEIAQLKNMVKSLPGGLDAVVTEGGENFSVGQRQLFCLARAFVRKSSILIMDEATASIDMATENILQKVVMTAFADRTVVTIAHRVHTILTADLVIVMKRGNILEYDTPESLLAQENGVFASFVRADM
T1 sequence (Q14654 whole entry partner): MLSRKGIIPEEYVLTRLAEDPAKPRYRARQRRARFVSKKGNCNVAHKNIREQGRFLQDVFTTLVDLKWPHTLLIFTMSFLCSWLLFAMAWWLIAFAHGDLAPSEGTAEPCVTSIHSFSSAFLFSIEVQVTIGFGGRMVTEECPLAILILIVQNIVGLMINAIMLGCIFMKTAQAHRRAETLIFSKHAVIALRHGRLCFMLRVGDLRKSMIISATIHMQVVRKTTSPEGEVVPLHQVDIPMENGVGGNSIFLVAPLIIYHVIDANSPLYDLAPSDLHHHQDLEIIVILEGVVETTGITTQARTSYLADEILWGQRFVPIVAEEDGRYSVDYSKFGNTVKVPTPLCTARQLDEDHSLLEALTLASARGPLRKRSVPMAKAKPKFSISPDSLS
Format: cell-based
Protocol: TE671 human medulloblastoma cells were obtained from ATCC and grown in Dulbecco's modified Eagle's medium (DMEM) supplemented with 10% fetal bovine serum, 100 U/ml penicillin and 100 U/ml streptomycine.
The day before testing, the cells were plated in black 96-well plates at 50K/well. On the day of testing, the growth media was removed, then 100 μl of FLIPR buffer (20 mM HEPES, 120 mM NaCl, 2 mM KCl, 2 mM CaCl2, 1 mM MgCl2, 5 mM Glucose) and 100 μl of Membrane Potential Assay Dye (Molecular Devices) dissolved in FLIPR buffer were added to each well. The cells were incubated at room temperature for 15 to 30 min.
The effect of test compounds on KATP channels were evaluated on a fluorometric imaging plate reader (FLIPR, Molecular Devices) at room temperature. After a baseline period, 50 μl of 5× stock solution of test compound prepared in FLIPR buffer was added and fluorescence change was monitored for 3 minutes. After this reading, glyburide, a KATP channel blocker, was added to a final concentration of 5 μM to check the specificity of the test compound as a KATP channel opener. Hyperpolarization resulting from KATP channel opening was observed as a decrease in fluorescence intensity.

Compared with `N#Cc1cccc(-c2ccncc2CO)c1` [Compound 50, 3-(3-Hydroxymethyl-pyridin-4-yl)-benzonitrile], `CC(O)c1cnccc1-c1cccc(C#N)c1` (stereo not shown) [Compound 52, 3-[3-(1-Hydroxy-ethyl)-pyridin-4-yl]-benzonitrile] is lower in EC50: > 30 µM for the first, 17.2 µM for the second. The second is the more potent here.

`N#Cc1cccc(-c2ccncc2C=O)c1` [Compound 51, 3-(3-Formyl-pyridin-4-yl)-benzonitrile] and `N#Cc1cccc(C2OC(O)c3cnccc32)c1` (stereo not shown) [Compound 55, 3-(3-Hydroxy-1,3-dihydro-furo[3,4-c]pyridin-1-yl)-benzonitrile] cannot be ordered by EC50: > 30 µM for the first, > 30 µM for the second.

`COc1ccc(C=O)cc1-c1ccncc1C=O` [Compound 53, 4-(5-Formyl-2-methoxy-phenyl)-pyridine-3-carbaldehyde] and `COc1ccc(CO)cc1-c1ccncc1CO` [Compound 58] cannot be ordered by EC50: > 30 µM for the first, > 30 µM for the second.

`OCc1cnccc1C(O)c1ccccc1` (stereo not shown) [Compound 56, (3-Hydroxymethyl-pyridin-4-yl)-phenyl-methanol] and `N#Cc1cccc(C(O)c2ccncc2CO)c1` (stereo not shown) [Compound 57, 3-[Hydroxy-(3-hydroxymethyl-pyridin-4-yl)-methyl]-benzonitrile] cannot be ordered by EC50: > 30 µM for the first, > 30 µM for the second.

Going from `CC(O)c1cnccc1C(=O)c1ccccc1` (stereo not shown) [Compound 59, [3-(1-Hydroxy-ethyl)-pyridin-4-yl]-phenyl-methanone] to `OC1OC(c2ccccc2)c2ccncc21` (stereo not shown) [Compound 65, 1-Phenyl-1,3-dihydro-furo[3,4-c]pyridin-3-ol], the EC50 rises from 26.8 µM to > 30 µM.

`CC(C)C(O)c1cnccc1Br` (stereo not shown) [Compound 63, 1-(4-Bromo-pyridin-3-yl)-2-methyl-propan-1-ol] and `N#Cc1cccc(C2OCc3cnccc32)c1` (stereo not shown) [Compound 66, 3-(1,3-Dihydro-furo[3,4-c]pyridin-1-yl)-benzonitrile] are within 1.5-fold of each other in EC50: 7.97 µM for the first, 8.19 µM for the second.

Same assay, conditions: TE671 human medulloblastoma cells, Membrane Potential Assay Dye, room temperature, test concentration not given

With `COc1ccc(C=O)cc1-c1ccncc1C=O` [Compound 53, 4-(5-Formyl-2-methoxy-phenyl)-pyridine-3-carbaldehyde] the “% Stimulation” value was 30%.
